Laboratory results taken from patent publication US9695155B2, “Herbicidal substituted pyrimidinyloxy benzene compounds” (E. I. DU PONT DE NEMOURS AND COMPANY, priority 2013, dated 2017).

Columns and labels:
morningglory = assay: Test A preemergence; format: in vivo, Ipomoea spp.; conditions: for Morningglory plant response rating (0 to 100 scale) / Plant response rating, Morningglory: 125 g ai/ha; for Morningglory plant response rating: 500 g ai/ha
In short: (§1)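 Greenhouse pot test, loam/sand soil. Formulation: non-phytotoxic solvent mix plus surfactant. Pre: directed spray onto soil after sowing. Post: plants at 1–2 leaf, 2–10 cm. Rated visually vs untreated controls at ~10 d, 0 (no effect) to 100 (complete control).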

barnyardgrass = assay: Test A postemergence; format: in vivo, Echinochloa crus-galli
In short: as §1

giant foxtail = assay: Test A postemergence; format: in vivo, Setaria faberii
In short: as §1

wheat = assay: Test A postemergence; format: in vivo, Triticum aestivum
In short: as §1

blackgrass = assay: Test C postemergence; format: in vivo, Alopecurus myosuroides; conditions: for Blackgrass plant response rating / Plant response rating, Blackgrass: scale 0 to 100 (0 no effect, 100 complete control)
Description: (§2) Seeds of plant species selected from blackgrass (Alopecurus myosuroides), Italian ryegrass (Lolium multiflorum), wheat, winter (winter wheat, Triticum aestivum), galium (catchweed bedstraw, Galium aparine), corn (Zea mays), large (Lg) crabgrass (Digitaria sanguinalis), giant foxtail (Setaria faberii), johnsongrass (Sorghum halepense), lambsquarters (Chenopodium album), morningglory (Ipomoea coccinea), yellow nutsedge (Cyperus esculentus), pigweed (Amaranthus retroflexus), ragweed (common ragweed, Ambrosia elatior), soybean (Glycine max), barnyardgrass (Echinochloa crus-galli), oilseed rape (Brassica napus), waterhemp (common waterhemp, Amaranthus rudis), kochia (Kochia scoparia), wild oat (Avena fatua), surinam grass (Brachiaria decumbens), foxtail, green (green foxtail, Setaria viridis), goosegrass (Eleusine indica), bromegrass, downy (downy bromegrass, Bromus tectorum), nightshade (eastern black nightshade, Solanum ptycanthum), cocklebur (common cocklebur, Xanthium strumarium), cupgrass, woolly (woolly cupgrass, Eriochloa villosa), bermudagrass (Cynodon dactylon), sunflower, (common oilseed sunflower, Helianthus annuus), Russian thistle (Salsola kali), and velvetleaf (Abutilon theophrasti) were planted into a blend of loam soil and sand and treated preemergence with test chemicals formulated in a non-phytotoxic solvent mixture which included a surfactant.
(§3) At the same time, plants selected from these crop and weed species and also barley, winter (winter barley, Hordeum vulgare), windgrass (Apera spica-venti), chickweed (common chickweed, Stellaria media), deadnettle (henbit deadnettle, Lamium amplexicaule), and canarygrass (littleseed canarygrass, Phalaris minor) were planted in pots containing Redi-Earth® planting medium (Scotts Company, 14111 Scottslawn Road, Marysville, Ohio 43041) comprising spaghnum peat moss, vermiculite, wetting agent and starter nutrients and treated with postemergence applications of test chemicals formulated in the same manner. Plants ranged in height from 2 to 18 cm (1- to 4-leaf stage) for postemergence treatments. Treated plants and controls were maintained in a greenhouse for 13 to 15 days, after which time all species were compared to controls and visually evaluated. Plant response ratings, summarized in Table C, are based on a scale of 0 to 100 where 0 is no effect and 100 is complete control. A dash (-) response means no test result.

large (Lg) crabgrass = assay: Test C postemergence; format: in vivo, Digitaria sanguinalis; conditions: for Crabgrass, Large plant response rating / Plant response rating, Crabgrass, Large: scale 0 to 100 (0 no effect, 100 complete control)
Description: as §2, §3

oilseed rape = assay: Test C postemergence; format: in vivo, Brassica napus; conditions: for Oilseed Rape plant response rating / Plant response rating, Oilseed Rape: scale 0 to 100 (0 no effect, 100 complete control)
Description: as §2, §3

[1] = 0 to 100 scale where 0 is no effect and 100 is complete control
[2] = 125 g ai/ha, 0 to 100 scale where 0 is no effect and 100 is complete control
[3] = 500 g ai/ha, 0 to 100 scale where 0 is no effect and 100 is complete control
[4] = 16 g ai/ha, postemergence, 0 is no effect, 100 is complete control
[5] = 31 g ai/ha, postemergence, visual rating, 13 to 15 days
[6] = 125 g ai/ha, postemergence, visual rating
[7] = Postemergence, 62 g ai/ha, 13 to 15 days
[8] = 0 to 100 scale, 0 no effect, 100 complete control, approx. 10 days
[9] = 16 g ai/ha, postemergence, visual rating, 13 to 15 days
[10] = Postemergence, 31 g ai/ha, 13 to 15 days
[11] = 500 g ai/ha, 0 to 100 scale, 0 no effect, 100 complete control

SMILES | Morningglory plant response rating (0 to 100 scale) (morningglory) | Morningglory plant response rating (morningglory; [1]) | Barnyardgrass plant response rating (barnyardgrass; [2]) | Plant response rating, Barnyardgrass (barnyardgrass; [3]) | Foxtail, Giant plant response rating (giant foxtail; [2]) | Plant response rating, Foxtail, Giant (giant foxtail; [3]) | Wheat plant response rating (wheat; [2]) | Plant response rating, Wheat (wheat; [3]) | Plant response rating (0 to 100), Blackgrass (blackgrass; [4]) | Blackgrass plant response rating (blackgrass; [5]) | Plant response rating, Blackgrass (blackgrass; [6]) | Plant response rating, Blackgrass (blackgrass; Postemergence, 62 g ai/ha) | Plant response rating (0 to 100), Crabgrass, Large (large (Lg) crabgrass; [4]) | Crabgrass, Large plant response rating (large (Lg) crabgrass; [5]) | Plant response rating, Crabgrass, Large (large (Lg) crabgrass; [6]) | Plant response rating, Crabgrass, Large (large (Lg) crabgrass; Postemergence, 62 g ai/ha) | Plant response rating (0 to 100), Oilseed Rape (oilseed rape; [4]) | Oilseed Rape plant response rating (oilseed rape; [5]) | Plant response rating, Oilseed Rape (oilseed rape; [6]) | Plant response rating, Oilseed Rape (oilseed rape; Postemergence, 62 g ai/ha) | also measured
FC(F)(F)c1cnn(-c2c(Br)cccc2Oc2ncc(Cl)cn2)c1 [Compound 191] | 50 | 70 | 50 | 90 | 50 | 90 | 20 | 40 | 0 | 0 | 10 | 5 | 5 | 5 | 10 | 5 | 10 | 45 | 50 | 50 | 
Clc1cnc(Oc2cccc(Cl)c2-n2cc(I)cn2)nc1 [Compound 181] | 0 | 30 | 60 | 90 | 70 | 90 | 0 | 30 | 5 | 5 | 25 | 15 | 5 | 5 | 10 | 10 | 55 | 60 | 100 | 60 | 
FC(F)c1cnn(-c2c(Cl)cccc2Oc2ncc(Cl)cn2)c1 [Compound 192] | 30 | 100 | 60 | 90 | 70 | 90 | 0 | 50 | 0 | 0 | 10 |  | 5 | 10 | 5 |  | 10 | 5 | 60 |  | Plant response rating, Blackgrass (blackgrass; [7]): 5; Plant response rating, Crabgrass, Large (large (Lg) crabgrass; [7]): 5; Plant response rating, Oilseed Rape (oilseed rape; [7]): 60
FC(F)Oc1cnn(-c2ccccc2Oc2ncc(Cl)cn2)c1 [Compound 98] |  |  |  | 90 |  | 90 |  | 60 |  |  |  | 30 |  |  |  | 5 |  |  |  | 95 | Plant response rating, Morningglory (morningglory; [1]): 60; Morningglory plant response rating (morningglory; [8]): 80; Plant response rating, Barnyardgrass (barnyardgrass; [2]): 80; Plant response rating, Foxtail, Giant (giant foxtail; [2]): 80; Blackgrass plant response rating (blackgrass; [9]): 0; Plant response rating (0 to 100), Blackgrass (blackgrass; 125 g ai/ha, postemergence): 20; Plant response rating, Blackgrass (blackgrass; [10]): 5; Crabgrass, Large plant response rating (large (Lg) crabgrass; [9]): 5; Plant response rating (0 to 100), Crabgrass, Large (large (Lg) crabgrass; 125 g ai/ha, postemergence): 5; Plant response rating, Crabgrass, Large (large (Lg) crabgrass; [10]): 5; Plant response rating (0 to 100), Oilseed Rape (oilseed rape; 125 g ai/ha, postemergence): 98; Plant response rating, Oilseed Rape (oilseed rape; [10]): 80
FC(F)c1cccc(Oc2ncc(Br)cn2)c1-n1cc(C(F)(F)F)cn1 [Compound 163] | 0 | 70 | 30 | 100 | 50 | 90 | 10 | 60 | 0 | 5 | 15 | 5 | 5 | 5 | 10 | 10 | 45 | 30 | 80 | 60 | 
N#Cc1cccc(Oc2ncc(Br)cn2)c1-n1cc(Br)cn1 [Compound 57] |  |  |  |  |  |  |  |  |  |  |  | 15 |  |  |  | 5 |  |  |  | 40 | Plant response rating, Morningglory (morningglory; [1]): 0; Morningglory plant response rating (morningglory; [8]): 40; Plant response rating, Barnyardgrass (barnyardgrass; [2]): 90; Plant response rating, Barnyardgrass (barnyardgrass; [11]): 100; Plant response rating, Foxtail, Giant (giant foxtail; [2]): 80; Plant response rating, Foxtail, Giant (giant foxtail; [11]): 100; Plant response rating, Wheat (wheat; [2]): 0; Plant response rating, Wheat (wheat; [11]): 30; Plant response rating (0 to 100), Blackgrass (blackgrass; 125 g ai/ha, postemergence): 30; Plant response rating (0 to 100), Blackgrass (blackgrass; 250 g ai/ha, postemergence): 30; Plant response rating, Blackgrass (blackgrass; [10]): 10; Plant response rating (0 to 100), Crabgrass, Large (large (Lg) crabgrass; 125 g ai/ha, postemergence): 10; Plant response rating (0 to 100), Crabgrass, Large (large (Lg) crabgrass; 250 g ai/ha, postemergence): 30; Plant response rating, Crabgrass, Large (large (Lg) crabgrass; [10]): 5; Plant response rating (0 to 100), Oilseed Rape (oilseed rape; 125 g ai/ha, postemergence): 80; Plant response rating (0 to 100), Oilseed Rape (oilseed rape; 250 g ai/ha, postemergence): 85; Plant response rating, Oilseed Rape (oilseed rape; [10]): 30
